# Inconclusive results are not listed. Activity calls are given as the source filed them.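 Rule for the calls: active = fitted curve reaches 40% activation at or below the top valid dose, and every replicate test is called active; inconclusive = replicate tests disagree, some active and some inactive; inactive = all replicate tests inactive, including activity in the wrong direction.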
# Biological target: Endoplasmic reticulum aminopeptidase 1 (Homo sapiens) (UniProt Q9NZ08)
# Assay: ERAP1 aminopeptidase activity change, dose response, biochemical, fluorescence, cherry-pick (AID 743317)
# Settings: ERAP1 enzyme, Leu-AMC fluorescence, 60 min
# Chain of Endoplasmic reticulum aminopeptidase 1 (Homo sapiens) (Q9NZ08 whole entry, looked up): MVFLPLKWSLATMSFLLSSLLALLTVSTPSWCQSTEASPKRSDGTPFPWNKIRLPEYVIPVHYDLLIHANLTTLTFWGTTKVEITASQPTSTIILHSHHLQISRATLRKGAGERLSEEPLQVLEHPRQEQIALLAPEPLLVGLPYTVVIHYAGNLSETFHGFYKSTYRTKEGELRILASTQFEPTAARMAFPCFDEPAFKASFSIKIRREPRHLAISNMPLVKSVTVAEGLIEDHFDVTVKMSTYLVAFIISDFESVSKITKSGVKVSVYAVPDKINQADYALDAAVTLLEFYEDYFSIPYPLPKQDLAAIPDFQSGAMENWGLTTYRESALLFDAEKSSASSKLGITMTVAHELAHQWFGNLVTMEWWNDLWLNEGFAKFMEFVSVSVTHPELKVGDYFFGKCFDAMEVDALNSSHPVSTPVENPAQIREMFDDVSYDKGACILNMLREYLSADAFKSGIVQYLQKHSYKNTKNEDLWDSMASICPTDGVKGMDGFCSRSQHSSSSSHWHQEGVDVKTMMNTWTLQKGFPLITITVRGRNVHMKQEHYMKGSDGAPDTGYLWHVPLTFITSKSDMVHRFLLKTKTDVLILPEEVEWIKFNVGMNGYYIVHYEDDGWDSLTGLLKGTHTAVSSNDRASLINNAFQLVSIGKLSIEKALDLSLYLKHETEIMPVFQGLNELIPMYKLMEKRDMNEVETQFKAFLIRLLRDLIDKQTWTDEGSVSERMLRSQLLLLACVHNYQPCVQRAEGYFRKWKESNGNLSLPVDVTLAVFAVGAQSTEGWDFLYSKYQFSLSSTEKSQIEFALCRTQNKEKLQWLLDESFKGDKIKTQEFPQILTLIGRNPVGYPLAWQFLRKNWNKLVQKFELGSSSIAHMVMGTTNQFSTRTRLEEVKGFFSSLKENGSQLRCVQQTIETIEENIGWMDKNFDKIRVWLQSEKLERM
row,SMILES,AC40
1,C[C@@H]1CCCCO[C@@H](CN(C)Cc2ccccc2)[C@@H](C)CN([C@H](C)CO)C(=O)c2cc(NS(=O)(=O)c3cccs3)ccc2O1,158 nM
2,CCCN(C)C[C@@H]1OCCCC[C@H](C)Oc2ccc(NC(=O)Nc3ccc(F)cc3)cc2C(=O)N([C@H](C)CO)C[C@@H]1C,4370 nM
3,C[C@H]1CN([C@@H](C)CO)C(=O)c2cccc(NC(=O)Nc3ccc(C(F)(F)F)cc3)c2O[C@@H]1CN(C)C,1410 nM
4,CCCN(C)C[C@@H]1OCCCC[C@@H](C)Oc2ccc(NS(=O)(=O)c3c(C)noc3C)cc2C(=O)N([C@H](C)CO)C[C@@H]1C,1240 nM
5,COc1ccc(CN(C)C[C@@H]2OCCCC[C@@H](C)Oc3ccc(NS(=O)(=O)c4cccs4)cc3C(=O)N([C@@H](C)CO)C[C@H]2C)cc1,577 nM
6,CCCN(C)C[C@@H]1OCCCC[C@@H](C)Oc2ccc(NS(=O)(=O)c3cccs3)cc2C(=O)N([C@H](C)CO)C[C@@H]1C,107 nM
7,Cc1ccc(S(=O)(=O)Nc2ccc3c(c2)C(=O)N([C@@H](C)CO)C[C@H](C)[C@H](CN(C)C)OCCCC[C@@H](C)O3)cc1,480 nM
8,C[C@@H]1CCCCO[C@@H](CN(C)Cc2ccc(C(=O)O)cc2)[C@H](C)CN([C@@H](C)CO)C(=O)c2cc(NS(=O)(=O)c3ccc(Cl)cc3)ccc2O1,3660 nM
9,COc1ccc(NC(=O)Nc2ccc3c(c2)C(=O)N([C@H](C)CO)C[C@@H](C)[C@@H](CN(C)Cc2ccc(C(=O)O)cc2)OCCCC[C@@H](C)O3)cc1,652 nM
10,C[C@@H]1CCCCO[C@H](CN(C)Cc2ccccc2)[C@H](C)CN([C@@H](C)CO)C(=O)c2cc(NS(=O)(=O)c3cccs3)ccc2O1,607 nM
11,C[C@@H]1CCCCO[C@@H](CN(C)Cc2ccc(C(=O)O)cc2)[C@@H](C)CN([C@H](C)CO)C(=O)c2cc(NC(=O)Nc3cccc4ccccc34)ccc2O1,408 nM
12,C[C@@H]1CCCCO[C@@H](CN(C)CC2CC2)[C@@H](C)CN([C@H](C)CO)C(=O)c2cc(NS(=O)(=O)c3ccc(Cl)cc3)ccc2O1,97.3 nM
13,Cc1noc(C)c1NC(=O)N(C)C[C@@H]1Oc2c(NC(=O)Nc3ccc(F)cc3)cccc2C(=O)N([C@H](C)CO)C[C@@H]1C,5640 nM
14,COc1cc2cc(C(=O)N3CCN(Cc4ccc5c(c4)OCO5)CC3)c(=O)oc2cc1OC,4580 nM
15,O=C(Nc1ccc(C(F)(F)F)cc1)N1[C@@H]2CNC[C@H]1C2c1ccc(-c2ccncc2)cc1 (some centres undefined),7230 nM
16,C[C@@H]1CCCCO[C@H](CN(C)Cc2ccc(C(=O)O)cc2)[C@H](C)CN([C@@H](C)CO)C(=O)c2cc(NC(=O)Nc3ccc(C(F)(F)F)cc3)ccc2O1,91.9 nM
17,Cc1noc(C)c1NC(=O)N(C)C[C@@H]1Oc2c(NC(=O)Nc3ccccc3)cccc2C(=O)N([C@H](C)CO)C[C@@H]1C,6450 nM
18,COc1ccc(CN(C)C[C@H]2OCCCC[C@@H](C)Oc3ccc(NS(=O)(=O)c4cccs4)cc3C(=O)N([C@H](C)CO)C[C@H]2C)cc1,1230 nM
19,C[C@@H]1CN([C@H](C)CO)C(=O)c2cccc(NC(=O)Nc3ccccc3)c2O[C@@H]1CN(C)Cc1ccc(C(=O)O)cc1,3610 nM

row,SMILES,AC40
1,C[C@@H]1CCCCO[C@@H](CN(C)C)[C@@H](C)CN([C@H](C)CO)C(=O)c2cc(NS(=O)(=O)c3ccc(Cl)cc3)ccc2O1,381 nM
2,C[C@H](CO)N1C[C@H](C)[C@H](CN(C)Cc2ccncc2)Oc2c(NC(=O)Nc3ccc(C(F)(F)F)cc3)cccc2C1=O,704 nM
3,COc1ccc(CN(C)C[C@@H]2OCCCC[C@@H](C)Oc3ccc(NS(=O)(=O)c4cccs4)cc3C(=O)N([C@H](C)CO)C[C@@H]2C)cc1,161 nM
4,COc1ccc(NC(=O)Nc2ccc3c(c2)C(=O)N([C@@H](C)CO)C[C@@H](C)[C@@H](CN(C)Cc2ccc(C(=O)O)cc2)OCCCC[C@@H](C)O3)cc1,< 80 nM
5,CCn1cc(CN2CCCC(C(=O)Nc3ccc(-c4nc5ccccc5[nH]4)cc3)C2)c(C)n1 (centres undefined),3500 nM
6,CCN(CC)c1ccc2c(C)c(Cl)c(=O)oc2c1,8190 nM
7,C[C@@H]1CCCCO[C@@H](CN(C)Cc2ccc3c(c2)OCO3)[C@@H](C)CN([C@H](C)CO)C(=O)c2cc(NS(=O)(=O)c3cccs3)ccc2O1,< 80 nM
8,C[C@H](CO)N1C[C@H](C)[C@@H](CN(C)C)Oc2c(NC(=O)Nc3ccc(C(F)(F)F)cc3)cccc2C1=O,762 nM
9,C[C@H](CO)N1C[C@H](C)[C@H](CN(C)Cc2ccc(C(=O)O)cc2)Oc2c(NC(=O)Nc3ccccc3)cccc2C1=O,2460 nM
10,CCCNC(=O)C[C@H]1CC[C@@H]2[C@H](COC[C@H](O)CN2C(=O)Nc2cccc(Cl)c2)O1,3410 nM
11,CC1CN(Cc2cc(=O)oc3cc(O)c(Cl)cc23)CC(C)O1 (centres undefined),3400 nM
12,COc1ccc(C2=NN(c3ccc(C(=O)O)cc3)C(c3ccc(OC)c(OC)c3)C2)cc1 (centres undefined),442 nM
13,CCCN(C)C[C@@H]1OCCCC[C@@H](C)Oc2ccc(NS(=O)(=O)c3ccc(OC)cc3)cc2C(=O)N([C@H](C)CO)C[C@@H]1C,812 nM
14,Cc1cc(=O)oc2cc(OCC(=O)N3CCN(C(C)c4ccccc4)CC3)c(Cl)cc12 (centres undefined),6220 nM
15,O=c1cc(CN2CCOCC2)c2cc(Cl)c(O)cc2o1,4840 nM
16,COc1ccc(NC(=O)Nc2ccc3c(c2)C(=O)N([C@@H](C)CO)C[C@@H](C)[C@H](CN(C)Cc2ccc(C(=O)O)cc2)OCCCC[C@H](C)O3)cc1,3740 nM
17,C[C@@H]1CCCCO[C@@H](CN(C)CC2CC2)[C@@H](C)CN([C@H](C)CO)C(=O)c2cc(NS(=O)(=O)c3cccs3)ccc2O1,< 80 nM
18,CNC[C@H]1OCCCC[C@@H](C)Oc2ccc(NS(=O)(=O)c3ccc(C)cc3)cc2C(=O)N([C@@H](C)CO)C[C@H]1C,3420 nM

# Same assay, conditions: ERAP1 enzyme, Leu-AMC fluorescence, 60 min; at 5.6 µM (top of the series)
row,SMILES,activity increase (activation)
1,COC(=O)Cc1c(C)c2ccc(O)c(CNCc3ccc(OC)c(OC)c3)c2oc1=O,-74.1% (inactive)
2,CCCc1cc(=O)oc2c(CN3CCN(C)CC3)c(O)ccc12,-44.3% (inactive)
3,CC1CCN(Cc2cc(=O)oc3cc(O)c(Cl)cc23)CC1,-36.5% (inactive)
4,O=c1ccc2cc(OC3O[C@H](CO)[C@@H](O)[C@H](O)[C@H]3O)c(O)cc2o1 (some centres undefined),-95.4% (inactive)

# Same assay, conditions: ERAP1 enzyme, Leu-AMC fluorescence, 60 min; at 11 µM (top of the series)
row,SMILES,activity increase (activation)
1,COc1ccc(-c2cc3ccc(O)cc3oc2=O)cc1,-75.7% (inactive)
2,Cc1cc(=O)oc2cc(NS(=O)(=O)c3ccc(F)cc3)ccc12,-52% (inactive)
3,CCN1CCN(Cc2c(O)ccc3c(C)cc(=O)oc23)CC1,-54.6% (inactive)
4,CCN(CC)Cc1c(O)ccc2cc(-c3nc4ccccc4n3C)c(=O)oc12,-105% (inactive)
5,CSC1=NS(=O)(=O)c2c(C)nn(C)c2S1,-42.5% (inactive)
6,CCc1c(C)c2cc(Cl)c(O)c(CN(CC)CC)c2oc1=O,-62.3% (inactive)
7,N#Cc1c(N2CCNCC2)nc(-c2ccco2)c2c1CCCC2,-51.7% (inactive)
8,CC1CCCC(C)N1CCCNC(=O)c1cc2c(s1)-c1ccccc1OC2 (centres undefined),-45.6% (inactive)
9,CN1c2ccc(-c3ccc(C#N)cc3)cc2[C@@H]2[C@@H](CCN2C(=O)CC2CC2)[C@@H]1CO,-8.63% (inactive)
10,Cc1c(CC(=O)N2CCN(C(=O)C3COc4ccccc4O3)CC2)c(=O)oc2cc(O)c(Cl)cc12 (centres undefined),-33.4% (inactive)
11,CN1CCCC1CCNc1ccc2c(=O)c3ccccc3oc2c1 (centres undefined),-115% (inactive)
12,Cc1c(Cc2ccccc2)c(=O)oc2cc(O)ccc12,-39.3% (inactive)
13,Cc1c(O)ccc2cc(S(=O)(=O)c3ccccc3)c(=O)oc12,-94% (inactive)
